Assay results: paper PMC11329504, “Identification of novel small molecule-based strategies of COL7A1 upregulation and readthrough activity for the treatment of recessive dystrophic epidermolysis bullosa” (Scientific Reports, 2024)
Read-outs that look alike come from different tables or passages of the source.

Assays:
Type in all cases: cell-based, human
[1] = system: total (truncated + full length) C7 in RDEB_L1 cells; experiment: AlphaLISA quantification of total C7 in RDEB_L1 cells; details: for EC50: Homo sapiens
Procedure: (§1) The AlphaLISA assay was developed in-house by using the biotin-conjugated rabbit polyclonal antibody anti-C7 (LSBio LS-298147) and conjugating the acceptor beads (PerkinElmer 6772001) to a monoclonal anti-Collagen type VII antibody produced in mouse, clone LH7.2 (Thermo MA5-13,432). Formulation of the mAb clone LH7.2 was exchanged to PBS and concentrated 5 × by using Amicon® Ultra-0.5 centrifugal filters up to 1 mg/ml. The conjugation procedure was carried out according to the protocol provided by PerkinElmer.
(§2) For compound treatment in RDEB patient-derived transformed keratinocytes, 5,000 cells were plated in 20 µL of supplemented KGM media containing 20 ng/mL TGFβ2 (SIGMA GF113) without GA-1000 in 384-well cell culture plates (Greiner 781098). The day after, 5 µL of test compounds prepared 5 × in supplemented KGM without GA-1000 were added over cells and incubated for 48 h at 37 °C and 5% CO2. For compound treatment in HEK293^R578X, 10,000 cells were plated in 20 μL of DMEM (High Glucose, 2 mM L-Glutamine, sodium pyruvate, and FBS 10%) in 384-well cell culture plates (Greiner 781,098,). The day after, 5 μL of test compounds prepared 5 × in DMEM complete medium were added over cells and incubated for 48 h at 37 °C and 5% CO2.
(§3) After the treatment process, 2.5 µL of RIPA buffer 10 x (Abcam ab156034) were added over the […] of cells for 20 min at room temperature to obtain a complete cell lysis. Then, 2 μL of sample (i.e., cell lysate with supernatant) were transferred to the AlphaLISA plate (PerkinElmer 6,059,340) containing […] of antibodies mixture ([…] of acceptor Beads-Ab and […] of biotin-rAb) prepared in AlphaLISA buffer 1 x (PerkinElmer AL00F). The reaction was incubated for 90 min at room temperature. Finally, 10 μL of […] of donor beads (PerkinElmer 6760002,) were added to the reaction under subdued light, mixed gently, and incubated for 3 h at room temperature. AlphaLISA signal was detected with an Envision microplate reader (Perkin Elmer) using the following setting: Filter: AlphaScreen, Excitation time: 180 ms, Integration time: 300 ms.
(§4) Statistical analyses were performed using GraphPad Prism v. 7.04 (La Jolla, California). Results are shown as mean ± SD of experimental replicates. Dose–response curves to assess compound treatment effect were plotted in a four-parameter logistic model. Relative EC50, representing the total drug concentration producing a 50% effect, was calculated in the four-parameter logistic equation. Comparisons of collagen protein and mRNA expression in different experimental conditions were made using ANOVA, followed by a post hoc test. statistical significance was considered with p values < 0.05.

[2] = system: total (truncated + full length) C7 in RDEB_L5 cells; experiment: AlphaLISA quantification of total C7 in RDEB_L5 cells; details: for EC50: Homo sapiens, total C7 AlphaLISA, 48 h, 20 ng/mL TGFß2, relative EC50, mean ± SD, read-out: Increase in C7 levels EC50; for Increase in C7 levels Emax, % vs baseline: 20 ng/mL TGFß2
Procedure: as §1, §2, §3, §4

[3] = system: COL7A1 mRNA in RDEB_L1 and RDEB_L5 cells; experiment: Real-time qPCR of COL7A1 mRNA; details: 24 h, 20 ng/mL TGFβ2
Procedure: For real-time qPCR, 15,000 RDEB keratinocytes or normal human epidermal keratinocytes were plated in a 96-well cell culture plate in 80 µL of supplemented KGM medium without GA-1000 and containing 20 ng/mL of TGFβ2 for RDEB keratinocytes, and cells were incubated overnight at 37 °C and 5%CO2. The day after, cells were treated with 20 µL of test compounds prepared 5 × in supplemented KGM without GA-100, for 24 h at 37 °C and 5% CO2. For the mRNA extraction, the medium was removed, cells were washed with PBS, and conserved at -80 °C until the total RNA extraction.
RNA extraction was conducted using the RNeasy 96 Kit (4) (Qiagen 74181) following the manufacturer’s instructions. Total RNA was recovered in 50 µL of RNase-free water and the yield of extracted RNA was quantified using a NanoDrop 2000 Spectrophotometer (ThermoFisher). Purified RNA was stored at -80 °C until RT-qPCR.
Real time-qPCR was performed by using the iTaq Universal Probes One-Step Kit, (cat. 1725140, Bio-Rad) and according to the manufacturer’s instructions. […] RT-qPCR was performed to quantify the COL7A1 mRNA (exon 64) expression.
For COL7A1 quantitative gene expression, human GAPDH was used as the endogenous control. Results were analyzed with the QuantStudio Real-Time PCR Software.

[4] = system: MDH1 native stop codon readthrough in RDEB_L1 and RDEB_L5 cells; experiment: Western blot of MDH1 native stop codon (NSC) readthrough selectivity; details: 48 h
Source text: In the absence of a verified target or mechanism of action, a key aspect of phenotypic screening is to ensure that the phenotypic activity is sufficiently selective and has minimal or no interference in physiologically close cellular processes. In this context, the selectivity of readthrough compounds vs native stop codons (NSC) and normal codon–anticodon recognition is an important endpoint to verify the selectivity of hit compounds. For that purpose, we analyzed the translation products of MDH-1, a gene that has an alternative native stop codon that has been used as a surrogate of non-specific readthrough activity[42],[43]. […] For western blot, RDEB or normal human keratinocytes were lysed in protein extraction buffer (50 mM Tris–HCl [pH 7.5], 100 mM NaCl, 1% Nonidet P-40, and 4 mM EDTA) containing proteinase inhibitors cocktail (Complete Mini, EDTA free; Roche Diagnostics, Mannheim, Germany). Lysates were incubated for 30 min on ice and centrifuged at 15,000 g for 30 min at 4 °C. Supernatants were then collected and concentrated by ultrafiltration using Amicon Ultra columns (10 kDa; Millipore, Ireland). Protein concentrations were measured using the Bradford assay (Bio-Rad, Hercules, CA). […] A. Nystrom, University of Freiburg). Invitrogen anti-MDH1 polyclonal antibody (PA550446, 1:1000) was used to detect MDH1. […]

[5] = RDEB_L1 cells, total C7 AlphaLISA, 48 h, 20 ng/mL TGFß2, mean ± SD, read-out: Increase in C7 levels EC50(rel)

| Compound | EC50 ([1]; RDEB_L1 cells, no gentamicin (Fig. 4b), read-out: EC50 of compound 1, total C7 AlphaLISA) [µM] | EC50 [1, 5] [µM] | decrease in the EC50 in the presence of increasing concentrations of gentamicin ([1]; RDEB_L1 cells) | Increase in C7 levels Emax, % vs baseline ([1]; RDEB_L1 cells, at 12 µM, 20 ng/mL TGFß2) [at 12 % vs baseline] | effect of the combination with gentamicin on total C7 levels ([1]; RDEB_L1 cells, both at concentrations in the range of their EC50, 48 h, 20 ng/mL TGFβ) | EC50 [2] [µM] | Increase in C7 levels Emax, % vs baseline ([2]; at 12.5 µM) [at 12.5 % vs baseline] | levels of COL7A1 mRNA (qPCR) [3] | EC50 ([1]; Table 5 SAR, C7 AlphaLISA, 20 ng/mL TGFß2 (cell line not given; compound 7 values equal RDEB_L1 of Table 1), read-out: Increase in C7 levels EC50 (rel)) [µM] | Increase in C7 levels Emax, % vs baseline ([1]; RDEB_L1 cells, at 50 µM, 20 ng/mL TGFß2) [at 50 % vs baseline] | Increase in C7 levels Emax, % vs baseline ([1]; Table 5 SAR, at 50 μM, 20 ng/mL TGFß2) [at 50 % vs baseline] | Increase in C7 levels Emax, % vs baseline ([2]; at 50 µM) [at 50 % vs baseline] | non-specific readthrough at MDH-1 native stop codon, western blot ([4]; two and threefold above its EC50 in RDEB_L5 and RDEB_L1 cells respectively) | EC50 ([1]; in RDEB_L1 and RDEB_L5 cells, read-out: EC50 (range over two cell lines)) [µM] | concentrations at which activity was detectable in the AlphaLISA assay ([1]; RDEB_L1 and L5 cells) [µM] | Increase in C7 levels Emax, % vs baseline ([1]; RDEB_L1 cells, 20 ng/mL TGFß2) [at 4100 % vs baseline] | Increase in C7 levels Emax, % vs baseline ([2]; at 1600 µM) [at 1600 % vs baseline] | non-specific readthrough at MDH-1 native stop codon, western blot ([4]; twofold above its EC50 in RDEB_L1) |
| --- | --- | --- | --- | --- | --- | --- | --- | --- | --- | --- | --- | --- | --- | --- | --- | --- | --- | --- |
| NC(=O)Cn1ccc2ccc(-c3cnc(N)c(C(=O)NC4C5CC6CC4CC(O)(C6)C5)n3)cc21 (centres unmarked) [Compound 1] | 4.56 | 3 ± 1.8 | threefold | 3279 ± 1236 | synergistic effect | 4.7 ± 0.8 | 1401 ± 384 | TGFβ2 was required for full upregulation |  |  |  |  |  |  |  |  |  |  |
| C#Cc1cc(-c2ccncc2)c(-c2cccc(F)c2)nc1N [Compound 7] |  | 17 ± 6.6 |  |  |  | 23 ± 11 |  | did not result in an increase in C7 mRNA levels | 17 ± 6.6 | 412 ± 80 | 412 ± 80 | 293 ± 58 | did not induce non-specific readthrough above background levels |  |  |  |  |  |
| CNC(C)C1CCC(N)C(OC2C(N)CC(N)C(OC3OCC(C)(O)C(NC)C3O)C2O)O1 (centres unmarked) [Gentamicin, reference compound] |  | 1700 ± 480 |  |  |  | 420 ± 390 |  |  |  |  |  |  |  | 420 to 1700 | > 100 | 199 ± 112 | 41 ± 3.3 | inducing detectable non-specific readthrough |
